# The source made the active and inactive calls. No cut-off for these calls is given here.
# Assays:
# [1] = biological target: Mast/stem cell growth factor receptor Kit (Homo sapiens) (UniProt P10721); conditions: dose 100.0 nM
# Description: Inhibition of human c-KIT at 100 nM using poly[Glu:Tyr] (4:1) as substrate in presence of [gamma-33P]-ATP by radiometric assay relative to control
# [2] = biological target: Tyrosine-protein kinase JAK2 (Homo sapiens) (UniProt O60674); assay: Inhibition of human JAK2 at 0.1 uM using poly[Glu:Tyr] (4:1) as substrate in presence of [gamma-33P]-ATP by radiometric assay relative to control
# [3] = biological target: Macrophage colony-stimulating factor 1 receptor (Homo sapiens) (UniProt P07333); conditions: dose 100.0 nM
# Description: Inhibition of human CSF1R at 100 nM using poly[Glu:Tyr] (4:1) as substrate in presence of [gamma-33P]-ATP by radiometric assay relative to control
# [4] = biological target: T1, Macrophage colony-stimulating factor 1 receptor (Mus musculus) (UniProt P09581); assay: Inhibition of CSF1R phosphorylation in mouse RAW 264.7 cells at 10 to 100 nM preincubated for 5 hrs followed by CSF stimulation for 10 mins by Western blot analysis; assay type: cell-based; conditions: RAW264.7, dose 10-100 nM, time 310.0 min
# T1 sequence (whole entry): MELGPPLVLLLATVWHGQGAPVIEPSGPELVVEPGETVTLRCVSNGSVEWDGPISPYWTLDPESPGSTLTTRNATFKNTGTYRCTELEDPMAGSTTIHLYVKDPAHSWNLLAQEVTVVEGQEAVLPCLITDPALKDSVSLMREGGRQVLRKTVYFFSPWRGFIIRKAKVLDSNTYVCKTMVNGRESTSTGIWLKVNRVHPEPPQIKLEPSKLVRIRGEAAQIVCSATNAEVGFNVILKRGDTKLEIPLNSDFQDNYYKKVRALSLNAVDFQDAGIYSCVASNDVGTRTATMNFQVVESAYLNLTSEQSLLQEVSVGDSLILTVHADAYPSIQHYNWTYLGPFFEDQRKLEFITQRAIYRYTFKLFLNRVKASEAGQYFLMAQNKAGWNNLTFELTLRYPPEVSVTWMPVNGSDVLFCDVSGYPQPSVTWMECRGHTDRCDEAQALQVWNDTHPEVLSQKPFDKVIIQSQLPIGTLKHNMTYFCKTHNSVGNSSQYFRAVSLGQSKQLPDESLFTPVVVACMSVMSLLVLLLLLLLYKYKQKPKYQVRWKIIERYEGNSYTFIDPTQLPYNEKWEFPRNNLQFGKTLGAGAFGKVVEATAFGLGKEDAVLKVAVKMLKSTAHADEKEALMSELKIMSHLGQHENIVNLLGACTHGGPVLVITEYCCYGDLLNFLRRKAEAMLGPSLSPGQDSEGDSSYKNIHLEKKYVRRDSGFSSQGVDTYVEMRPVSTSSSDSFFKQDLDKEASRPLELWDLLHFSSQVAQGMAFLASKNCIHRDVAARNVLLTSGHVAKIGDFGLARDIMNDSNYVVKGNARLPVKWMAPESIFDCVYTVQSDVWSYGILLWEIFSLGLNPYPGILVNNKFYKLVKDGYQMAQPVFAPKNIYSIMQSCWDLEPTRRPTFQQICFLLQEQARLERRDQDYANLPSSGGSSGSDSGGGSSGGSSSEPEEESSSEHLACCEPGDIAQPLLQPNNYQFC
# [5] = biological target: Receptor-type tyrosine-protein kinase FLT3 (Homo sapiens) (UniProt P36888); conditions: dose 10.0 nM
# [6] = biological target: Tyrosine-protein kinase Lck (Homo sapiens) (UniProt P06239); assay: Inhibition of human LCK at 0.1 uM using poly[Glu:Tyr] (4:1) as substrate jn presence of [gamma-33P]-ATP by radiometric assay relative to control
# [7] = biological target: ALK tyrosine kinase receptor (Homo sapiens) (UniProt Q9UM73); assay: Inhibition of human ALK at 0.1 uM using poly[Glu:Tyr] (4:1) as substrate in presence of [gamma-33P]-ATP by radiometric assay relative to control
# [8] = biological target: T2, Tyrosine-protein kinase JAK3 (Homo sapiens) (UniProt P52333); assay: Inhibition of human JAK3 at 0.1 uM using GGEEEEYFELVKKKK as substrate in presence of [gamma-33P]-ATP by radiometric assay relative to control
# T2 sequence (whole entry): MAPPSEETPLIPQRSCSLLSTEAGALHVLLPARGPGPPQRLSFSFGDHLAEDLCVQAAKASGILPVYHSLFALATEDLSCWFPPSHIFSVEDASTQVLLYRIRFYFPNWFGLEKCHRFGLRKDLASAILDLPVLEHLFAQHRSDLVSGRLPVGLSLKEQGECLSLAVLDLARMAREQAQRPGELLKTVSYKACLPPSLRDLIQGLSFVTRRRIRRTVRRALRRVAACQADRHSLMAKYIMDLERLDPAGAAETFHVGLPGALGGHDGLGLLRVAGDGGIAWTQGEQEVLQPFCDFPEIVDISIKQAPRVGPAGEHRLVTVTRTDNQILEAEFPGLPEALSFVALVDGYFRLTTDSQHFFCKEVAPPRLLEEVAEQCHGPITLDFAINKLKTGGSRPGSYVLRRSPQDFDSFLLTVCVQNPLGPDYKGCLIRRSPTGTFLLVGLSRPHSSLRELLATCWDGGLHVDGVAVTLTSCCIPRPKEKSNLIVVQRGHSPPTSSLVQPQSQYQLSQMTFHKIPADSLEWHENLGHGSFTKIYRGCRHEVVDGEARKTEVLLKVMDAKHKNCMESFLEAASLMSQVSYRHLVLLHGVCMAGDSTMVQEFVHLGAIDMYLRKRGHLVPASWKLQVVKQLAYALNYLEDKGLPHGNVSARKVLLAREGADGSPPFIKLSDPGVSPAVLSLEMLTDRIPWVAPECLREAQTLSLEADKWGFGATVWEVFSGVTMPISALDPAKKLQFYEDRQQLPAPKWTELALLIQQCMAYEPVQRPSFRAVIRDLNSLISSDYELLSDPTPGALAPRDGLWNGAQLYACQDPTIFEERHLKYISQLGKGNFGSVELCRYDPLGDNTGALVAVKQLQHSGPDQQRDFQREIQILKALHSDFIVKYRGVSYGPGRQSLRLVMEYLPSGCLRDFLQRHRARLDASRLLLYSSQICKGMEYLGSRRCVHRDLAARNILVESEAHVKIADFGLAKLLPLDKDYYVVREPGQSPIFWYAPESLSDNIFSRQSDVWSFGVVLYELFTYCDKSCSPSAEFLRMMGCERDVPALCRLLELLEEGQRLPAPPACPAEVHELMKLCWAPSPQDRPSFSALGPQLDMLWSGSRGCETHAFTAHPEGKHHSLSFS
# [9] = biological target: Receptor-type tyrosine-protein kinase FLT3 (Homo sapiens) (UniProt P36888); conditions: dose 100.0 nM
# [10] = biological target: Mast/stem cell growth factor receptor Kit (Homo sapiens) (UniProt P10721); conditions: dose 10.0 nM
# Description: Inhibition of human c-KIT at 10 nM using poly[Glu:Tyr] (4:1) as substrate in presence of [gamma-33P]-ATP by radiometric assay relative to control
# [11] = organism: Homo sapiens; assay: Inhibition of human PKA at 0.1 uM using LCGRTGRRNSI as substrate in presence of [gamma-33P]-ATP by radiometric assay relative to control
# [12] = biological target: Epidermal growth factor receptor (Homo sapiens) (UniProt P00533); assay: Inhibition of human EGFR at 0.1 uM using poly[Glu:Tyr] (4:1) as substrate in presence of [gamma-33P]-ATP by radiometric assay relative to control
# [13] = biological target: Macrophage colony-stimulating factor 1 receptor (Homo sapiens) (UniProt P07333); conditions: dose 10.0 nM
# Description: Inhibition of human CSF1R at 10 nM using poly[Glu:Tyr] (4:1) as substrate in presence of [gamma-33P]-ATP by radiometric assay relative to control
# [14] = biological target: Tyrosine-protein kinase ABL1 (Homo sapiens) (UniProt P00519); assay: Inhibition of human ABL1 at 0.1 uM using EAIYAAPFAKKK as substrate in presence of [gamma-33P]-ATP by radiometric assay relative to control
# [15] = biological target: Serine/threonine-protein kinase B-raf (Homo sapiens) (UniProt P15056); assay: Inhibition of human BRAF at 0.1 uM using MEK1 (K97R) as substrate in presence of [gamma-33P]-ATP by radiometric assay relative to control
# [16] = biological target: Non-receptor tyrosine-protein kinase TYK2 (Homo sapiens) (UniProt P29597); assay: Inhibition of human TYK2 at 0.1 uM using KKSRGDYMTMQIG as substrate in presence of [gamma-33P]-ATP by radiometric assay relative to control
# [17] = biological target: Tyrosine-protein kinase Lyn (Homo sapiens) (UniProt P07948); assay: Inhibition of human LYN at 0.1 uM using poly[Glu:Tyr] (4:1) as substrate in presence of [gamma-33P]-ATP by radiometric assay relative to control
# [18] = biological target: Dual specificity mitogen-activated protein kinase kinase 1 (Homo sapiens) (UniProt Q02750); assay: Inhibition of human MEK1 at 0.1 uM using ERK2 (K52R) as substrate in presence of [gamma-33P]-ATP by radiometric assay relative to control
# [19] = biological target: Mitogen-activated protein kinase 1 (Homo sapiens) (UniProt P28482); assay: Inhibition of human ERK2 at 0.1 uM using MBP as substrate in presence of [gamma-33P]-ATP by radiometric assay relative to control
# Sequence of Macrophage colony-stimulating factor 1 receptor (Homo sapiens) (P07333 whole entry): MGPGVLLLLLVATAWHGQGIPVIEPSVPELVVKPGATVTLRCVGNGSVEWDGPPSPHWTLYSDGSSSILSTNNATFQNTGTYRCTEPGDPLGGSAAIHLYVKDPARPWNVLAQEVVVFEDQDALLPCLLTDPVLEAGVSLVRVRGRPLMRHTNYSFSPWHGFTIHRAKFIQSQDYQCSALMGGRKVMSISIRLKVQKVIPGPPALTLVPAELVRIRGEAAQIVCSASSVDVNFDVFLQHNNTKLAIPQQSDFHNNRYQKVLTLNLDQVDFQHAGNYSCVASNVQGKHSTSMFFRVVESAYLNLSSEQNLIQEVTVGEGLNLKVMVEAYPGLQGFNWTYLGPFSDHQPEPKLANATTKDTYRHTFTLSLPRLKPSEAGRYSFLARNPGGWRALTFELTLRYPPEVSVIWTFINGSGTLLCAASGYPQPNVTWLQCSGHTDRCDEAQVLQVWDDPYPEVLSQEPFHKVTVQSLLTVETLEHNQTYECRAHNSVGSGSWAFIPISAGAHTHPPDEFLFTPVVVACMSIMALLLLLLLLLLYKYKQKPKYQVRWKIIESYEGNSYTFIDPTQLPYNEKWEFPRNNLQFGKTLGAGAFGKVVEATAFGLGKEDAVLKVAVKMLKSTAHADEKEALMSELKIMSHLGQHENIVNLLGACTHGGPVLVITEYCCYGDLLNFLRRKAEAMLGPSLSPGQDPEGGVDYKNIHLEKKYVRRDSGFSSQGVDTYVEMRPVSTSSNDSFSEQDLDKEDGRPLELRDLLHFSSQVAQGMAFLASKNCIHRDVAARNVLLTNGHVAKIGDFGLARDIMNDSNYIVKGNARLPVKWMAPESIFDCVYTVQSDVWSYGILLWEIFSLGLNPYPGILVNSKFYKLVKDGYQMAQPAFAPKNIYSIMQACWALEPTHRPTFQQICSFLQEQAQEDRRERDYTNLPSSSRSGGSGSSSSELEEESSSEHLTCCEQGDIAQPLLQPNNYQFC
# Sequence of Receptor-type tyrosine-protein kinase FLT3 (Homo sapiens) (P36888 whole entry): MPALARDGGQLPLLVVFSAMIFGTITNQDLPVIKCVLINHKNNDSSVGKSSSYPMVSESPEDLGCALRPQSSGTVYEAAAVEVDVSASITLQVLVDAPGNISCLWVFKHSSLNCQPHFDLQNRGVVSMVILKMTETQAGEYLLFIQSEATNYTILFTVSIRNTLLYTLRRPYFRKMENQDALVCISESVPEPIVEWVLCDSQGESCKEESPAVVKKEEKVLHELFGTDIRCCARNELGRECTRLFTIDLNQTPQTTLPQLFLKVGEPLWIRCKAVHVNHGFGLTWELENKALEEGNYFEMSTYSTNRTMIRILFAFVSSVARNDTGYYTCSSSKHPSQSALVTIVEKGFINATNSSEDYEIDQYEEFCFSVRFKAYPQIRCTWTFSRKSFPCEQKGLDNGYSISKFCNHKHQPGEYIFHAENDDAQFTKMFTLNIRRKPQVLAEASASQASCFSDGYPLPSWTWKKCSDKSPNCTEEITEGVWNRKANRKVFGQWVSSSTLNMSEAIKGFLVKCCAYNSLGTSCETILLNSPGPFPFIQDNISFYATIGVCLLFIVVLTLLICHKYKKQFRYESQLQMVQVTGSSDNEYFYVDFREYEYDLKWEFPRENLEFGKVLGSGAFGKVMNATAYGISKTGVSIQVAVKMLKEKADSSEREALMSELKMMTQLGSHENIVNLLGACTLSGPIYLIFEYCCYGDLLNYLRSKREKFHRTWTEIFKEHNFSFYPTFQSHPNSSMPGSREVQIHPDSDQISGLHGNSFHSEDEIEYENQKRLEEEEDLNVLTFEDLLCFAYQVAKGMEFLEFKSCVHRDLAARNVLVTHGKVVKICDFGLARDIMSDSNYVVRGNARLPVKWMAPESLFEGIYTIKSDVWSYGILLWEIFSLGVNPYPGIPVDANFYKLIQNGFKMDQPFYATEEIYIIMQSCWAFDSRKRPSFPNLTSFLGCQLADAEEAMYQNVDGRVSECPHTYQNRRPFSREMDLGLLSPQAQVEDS
# Sequence of Mast/stem cell growth factor receptor Kit (Homo sapiens) (P10721 whole entry): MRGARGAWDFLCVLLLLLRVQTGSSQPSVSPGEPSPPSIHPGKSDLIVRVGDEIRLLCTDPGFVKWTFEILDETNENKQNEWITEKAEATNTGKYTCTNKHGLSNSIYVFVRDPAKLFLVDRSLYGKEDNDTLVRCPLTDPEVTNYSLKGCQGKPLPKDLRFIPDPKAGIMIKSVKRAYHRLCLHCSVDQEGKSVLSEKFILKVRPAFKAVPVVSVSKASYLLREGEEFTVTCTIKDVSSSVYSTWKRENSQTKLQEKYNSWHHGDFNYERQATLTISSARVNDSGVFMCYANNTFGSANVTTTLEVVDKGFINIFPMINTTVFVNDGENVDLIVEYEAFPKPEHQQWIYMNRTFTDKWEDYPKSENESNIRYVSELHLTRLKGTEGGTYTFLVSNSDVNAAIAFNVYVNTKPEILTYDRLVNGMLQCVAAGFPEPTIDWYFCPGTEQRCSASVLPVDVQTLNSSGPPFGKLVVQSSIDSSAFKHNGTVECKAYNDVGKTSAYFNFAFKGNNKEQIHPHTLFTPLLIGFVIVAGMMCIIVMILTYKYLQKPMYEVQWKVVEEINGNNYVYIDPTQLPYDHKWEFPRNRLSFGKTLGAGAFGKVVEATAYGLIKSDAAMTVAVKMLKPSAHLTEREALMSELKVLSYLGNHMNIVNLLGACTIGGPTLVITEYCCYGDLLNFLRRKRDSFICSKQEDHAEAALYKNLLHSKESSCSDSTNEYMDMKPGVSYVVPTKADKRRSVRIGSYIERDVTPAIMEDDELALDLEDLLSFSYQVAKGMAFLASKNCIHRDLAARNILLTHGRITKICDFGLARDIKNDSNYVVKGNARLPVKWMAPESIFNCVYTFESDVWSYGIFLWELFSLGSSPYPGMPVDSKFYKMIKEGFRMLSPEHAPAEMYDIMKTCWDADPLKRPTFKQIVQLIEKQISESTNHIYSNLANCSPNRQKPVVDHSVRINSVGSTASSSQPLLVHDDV
# Sequence of Tyrosine-protein kinase ABL1 (Homo sapiens) (P00519 whole entry): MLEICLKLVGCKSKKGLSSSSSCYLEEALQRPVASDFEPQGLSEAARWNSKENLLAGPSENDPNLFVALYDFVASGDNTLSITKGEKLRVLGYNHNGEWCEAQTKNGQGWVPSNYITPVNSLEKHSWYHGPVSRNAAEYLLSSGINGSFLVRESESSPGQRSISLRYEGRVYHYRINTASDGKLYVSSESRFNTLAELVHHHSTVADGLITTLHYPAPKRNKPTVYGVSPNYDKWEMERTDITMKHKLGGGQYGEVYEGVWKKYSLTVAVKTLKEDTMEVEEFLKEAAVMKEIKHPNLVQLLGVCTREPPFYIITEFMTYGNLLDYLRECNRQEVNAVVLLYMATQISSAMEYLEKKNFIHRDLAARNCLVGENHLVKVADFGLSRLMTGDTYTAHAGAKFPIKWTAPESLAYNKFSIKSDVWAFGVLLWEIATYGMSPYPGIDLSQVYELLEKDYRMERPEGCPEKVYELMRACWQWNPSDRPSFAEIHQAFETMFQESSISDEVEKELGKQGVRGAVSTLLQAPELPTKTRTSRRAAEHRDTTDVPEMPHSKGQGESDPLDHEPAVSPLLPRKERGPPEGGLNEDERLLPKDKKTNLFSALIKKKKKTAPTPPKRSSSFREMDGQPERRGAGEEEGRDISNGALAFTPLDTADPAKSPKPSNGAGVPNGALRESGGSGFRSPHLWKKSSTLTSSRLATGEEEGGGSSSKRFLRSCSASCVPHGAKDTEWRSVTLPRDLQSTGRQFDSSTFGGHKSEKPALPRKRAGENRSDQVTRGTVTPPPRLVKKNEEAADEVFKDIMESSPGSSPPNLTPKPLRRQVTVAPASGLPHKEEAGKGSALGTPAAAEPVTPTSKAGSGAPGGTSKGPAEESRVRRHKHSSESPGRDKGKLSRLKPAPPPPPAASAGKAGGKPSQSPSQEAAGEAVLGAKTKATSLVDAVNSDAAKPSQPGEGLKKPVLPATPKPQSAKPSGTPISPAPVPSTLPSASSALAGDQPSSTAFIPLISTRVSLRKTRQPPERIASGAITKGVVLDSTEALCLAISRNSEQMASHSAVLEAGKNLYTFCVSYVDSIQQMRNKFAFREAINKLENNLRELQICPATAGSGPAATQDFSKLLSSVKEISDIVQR
# Sequence of Serine/threonine-protein kinase B-raf (Homo sapiens) (P15056 whole entry): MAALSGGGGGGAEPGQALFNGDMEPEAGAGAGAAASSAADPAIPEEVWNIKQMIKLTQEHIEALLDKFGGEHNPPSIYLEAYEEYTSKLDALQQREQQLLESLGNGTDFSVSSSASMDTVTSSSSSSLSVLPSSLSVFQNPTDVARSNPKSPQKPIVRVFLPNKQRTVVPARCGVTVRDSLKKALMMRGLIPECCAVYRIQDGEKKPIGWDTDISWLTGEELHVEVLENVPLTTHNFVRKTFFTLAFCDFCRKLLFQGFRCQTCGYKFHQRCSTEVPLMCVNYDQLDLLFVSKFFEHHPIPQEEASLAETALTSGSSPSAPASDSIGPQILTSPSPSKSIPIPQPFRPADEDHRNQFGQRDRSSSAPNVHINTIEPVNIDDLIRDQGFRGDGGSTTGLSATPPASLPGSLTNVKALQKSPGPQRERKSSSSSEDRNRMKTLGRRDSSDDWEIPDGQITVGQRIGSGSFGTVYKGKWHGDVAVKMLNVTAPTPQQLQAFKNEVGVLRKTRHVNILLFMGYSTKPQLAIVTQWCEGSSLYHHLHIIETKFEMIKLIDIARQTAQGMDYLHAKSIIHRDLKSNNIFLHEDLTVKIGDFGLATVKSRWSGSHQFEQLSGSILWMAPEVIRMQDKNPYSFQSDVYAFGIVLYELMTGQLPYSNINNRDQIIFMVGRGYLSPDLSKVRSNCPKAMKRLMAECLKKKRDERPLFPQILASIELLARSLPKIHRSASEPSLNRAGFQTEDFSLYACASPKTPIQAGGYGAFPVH
compound,measurement,setting,value
Cc1ccc(NC(=O)c2ccc(C(F)(F)F)nc2)cc1NC(=O)c1cnc2ccccn12,inhibition,[1],58%
same,inhibition,[2],0%
same,inhibition,[3],97%
same,inhibition,[4],Active
same,inhibition,[5],3%
same,inhibition,[6],75%
same,inhibition,[7],41%
same,inhibition,[8],0%
same,inhibition,[9],4%
same,inhibition,[10],35%
same,inhibition,[11],42%
same,inhibition,[12],60%
same,inhibition,[13],87%
same,inhibition,[14],79%
same,inhibition,[15],39%
same,inhibition,[16],16%
same,inhibition,[17],93%
same,inhibition,[18],30%
same,inhibition,[19],0%
